The values below come from patent publication US20140213567A1, “TAZOBACTAM ARGININE ANTIBIOTIC COMPOSITIONS” (Cubist Pharmaceuticals, Inc., priority 2012, published 2014).

The nature of the data set: Hygroscopicity of solid form. It is filed as physicochemical. As to conditions: relative to amorphous tazobactam arginine and amorphous tazobactam sodium.

Take `C[C@]1(Cn2ccnn2)[C@H](C(=O)O)N2C(=O)CC2S1(=O)=O` (stereo partly shown) [Tazobactam arginine polymorph Ia, Tazobactam Arginine]: the hygroscopicity result is “low hygroscopicity”.
